Reference: patent US12466813B2, “PRC1 inhibitors and methods of treatment therewith” (The Regents of the University of Michigan, priority 2018, dated 2025)

Biological target: T1, RING1B-BMI1 (Homo sapiens, UniProt Q99496)
T1 sequence (Q99496 1-336): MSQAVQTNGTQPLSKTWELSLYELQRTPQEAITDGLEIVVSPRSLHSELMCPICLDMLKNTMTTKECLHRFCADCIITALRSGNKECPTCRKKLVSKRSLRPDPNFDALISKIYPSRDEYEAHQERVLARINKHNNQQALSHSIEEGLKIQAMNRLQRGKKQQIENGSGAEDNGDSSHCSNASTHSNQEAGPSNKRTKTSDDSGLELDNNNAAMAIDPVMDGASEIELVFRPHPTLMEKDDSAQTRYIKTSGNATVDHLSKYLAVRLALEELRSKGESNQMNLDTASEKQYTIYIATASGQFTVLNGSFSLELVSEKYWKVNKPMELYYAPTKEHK
T1 sequence (P35226 1-326 partner): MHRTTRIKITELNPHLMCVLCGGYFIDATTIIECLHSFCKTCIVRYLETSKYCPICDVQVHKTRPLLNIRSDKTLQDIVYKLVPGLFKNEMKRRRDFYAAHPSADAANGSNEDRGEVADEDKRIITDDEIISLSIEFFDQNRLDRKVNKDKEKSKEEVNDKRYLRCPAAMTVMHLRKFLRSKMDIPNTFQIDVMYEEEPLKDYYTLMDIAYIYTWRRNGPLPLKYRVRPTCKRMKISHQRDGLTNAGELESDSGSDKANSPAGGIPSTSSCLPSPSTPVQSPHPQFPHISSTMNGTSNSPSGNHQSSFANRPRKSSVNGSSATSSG
Test: KD classes of Table A (direct binding to Ring1B-Bmi1)
Conditions: class given in Table A
Protocol: Experiments were conducted during development of embodiments herein to develop small molecule inhibitors of PRC1 by targeting the Ring1B-BMI1 E3 ligase. These compounds bind directly to Ring1B-Bmi1 with low-micromolar affinity and inhibit PRC1 in vitro and in cells. […] Experiments were conducted during development of embodiments herein to test COMPOUND 1 in leukemia stem cell models represented by TEX cells (Ref. 22; herein incorporated by reference in its entirety) and M9-ENL1 cells (Ref. 23; herein incorporated by reference in its entirety). […] In some embodiments, COMPOUND 1 and COMPOUND 1 analogs are find use as agents in targeting leukemia and other cancer stem cells.
The compounds listed in Table A have been synthesized and/or tested for activity in inhibiting activity of PRC1 complex, and are within the scope herein.

Row | Kd [µM] | Compound
1 | < 20 | COc1cc(-c2c(C(=O)O)[nH]c(-c3cc(F)cc4[nH]ccc34)c2C(C)C)c2ccn(CC(N)=O)c2c1 [compound 175]
2 | < 20 | C#CCCCCC(=O)NCCn1ccc2c(-c3c(C(=O)O)[nH]c(-c4cc(F)cc5[nH]ccc45)c3C(C)C)cccc21 [compound 66]
3 | < 20 | CC(C)c1c(-c2cc(F)cc3[nH]ccc23)[nH]c(C(=O)O)c1-c1cccc2[nH]c3c(c12)CCCC3=O [compound 211]
4 | < 20 | C#CCCCCC(=O)NCCc1c[nH]c2cc(F)cc(-c3[nH]c(C(=O)O)c(-c4c(Cl)ccc5[nH]ccc45)c3C(C)C)c12 [compound 67]
5 | < 20 | COc1ccc(-c2c(C(=O)O)[nH]c(-c3cc(F)cc4[nH]ccc34)c2C(C)C)c(F)c1 [compound 58]
6 | < 20 | CC(C)CCOc1cc(-c2c(C(=O)O)[nH]c(-c3cc(F)cc4[nH]ccc34)c2C(C)C)c2cc[nH]c2c1 [compound 196]
7 | < 20 | CC(C)c1c(-c2cc(F)cc3[nH]ccc23)[nH]c(C(=O)O)c1-c1cccc2[nH]c(S(C)(=O)=O)cc12 [compound 228]
8 | < 20 | COc1ccc(-c2c(C(=O)O)[nH]c(-c3cc(F)cc4[nH]ccc34)c2C(C)C)c2cc[nH]c12 [compound 37]
9 | < 20 | COc1cc(-c2c(C(=O)O)[nH]c(-c3cc(F)cc4[nH]ccc34)c2C(C)C)c2cc(CO)[nH]c2c1 [compound 192]
10 | < 20 | CC(C)c1c(-c2cc(F)cc3[nH]ccc23)[nH]c(C(=O)O)c1-c1cc(OC2CCCC2)cc2[nH]ccc12 [compound 234]
11 | < 20 | CCc1c(-c2c(C)ccc3[nH]ccc23)[nH]c(C(=O)O)c1-c1cccc2[nH]ccc12 [compound 2]
12 | > 100 | Cc1cccc(-c2ccc(C(=O)O)[nH]2)c1 [compound 128]
13 | > 100 | CCc1c(-c2cccc3[nH]ccc23)[nH]c(C(=O)O)c1C1CCCCC1 [compound 102]
14 | > 100 | CCc1c(-c2cccc3[nH]ccc23)[nH]c(C(=O)O)c1-c1ccc(-c2ccccc2)cc1 [compound 106]
15 | < 20 | CCc1c(-c2c(C)ccc3[nH]ccc23)[nH]c(C(=O)O)c1-c1c(Cl)ccc2[nH]ccc12 [compound 6]
16 | > 100 | CCCCc1c(-c2cccc3[nH]ccc23)[nH]c(C(=O)O)c1-c1ccccc1Cl [compound 162]
17 | 20 to 50 | CCc1c(-c2cccc3[nH]ccc23)[nH]c(C(=O)O)c1-c1cc([N+](=O)[O-])ccc1Cl [compound 81]
18 | < 20 | CC(C)c1c(-c2cc(F)cc3[nH]ccc23)[nH]c(C(=O)O)c1-c1cc(C(=O)O)cc2[nH]ccc12 [compound 197]
19 | < 20 | CCc1c(-c2cccc3[nH]ccc23)[nH]c(C(=O)O)c1-c1c(Cl)ccc2[nH]ccc12 [compound 16]
20 | < 20 | COc1cc(-c2c(C(=O)O)[nH]c(-c3cc(F)cc4[nH]ccc34)c2C(C)C)c2ccn(CCNC(=O)c3nccs3)c2c1 [compound 177, 5-(6-fluoro-1H-indol-4-yl)-4-isopropyl-3-(6-methoxy-1-(2-(thiazole-2-carboxamido)ethyl)-1H-indol-4-yl)-1H-pyrrole-2-carboxylic acid]

Row | Kd [µM] | Compound
21 | < 20 | CC(C)c1c(-c2ccnc3[nH]ccc23)[nH]c(C(=O)O)c1-c1c(Cl)ccc2[nH]ccc12 [compound 75]
22 | 50 to 100 | CCc1c(-c2cccc3[nH]ccc23)[nH]c(C(=O)O)c1-c1ccccc1-c1ccccc1 [compound 96]
23 | 20 to 50 | CCc1c(-c2cccc3[nH]ccc23)[nH]c(C(=O)O)c1-c1ccccc1C(F)(F)F [compound 82]
24 | < 20 | CC(C)c1c(-c2cc(F)cc3[nH]ccc23)[nH]c(C(=O)O)c1-c1ccnc2[nH]c(-c3cc[nH]n3)cc12 [compound 249]
25 | > 100 | CCc1c(C(=O)O)[nH]c(-c2cccc3[nH]ccc23)c1-c1ccccc1 [compound 113]
26 | < 20 | CC(C)c1c(-c2cc(F)cc3[nH]ccc23)[nH]c(C(=O)O)c1-c1cc(C(F)(F)F)cc2c1ccn2CC(=O)O [compound 54]
27 | < 20 | COc1cc(Cl)c(-c2c(C(=O)O)[nH]c(-c3cccc4[nH]ccc34)c2C(C)C)cc1[N+](=O)[O-] [compound 3]
28 | < 20 | COc1cc(-c2c(C(=O)O)[nH]c(-c3cc(F)cc4[nH]ccc34)c2C(C)C)c2cc(C)[nH]c2c1 [compound 193]
29 | < 20 | CC(C)c1c(-c2cc(F)cc3[nH]ccc23)[nH]c(C(=O)O)c1-c1cc(C(=O)N2CCCC2)cc2[nH]ccc12 [compound 198]
30 | < 20 | COc1cc(-c2c(C(=O)O)[nH]c(-c3cc(F)cc4[nH]ccc34)c2C(C)C)c2ccn(CCNC(=O)Cc3cscn3)c2c1 [compound 178]
31 | < 20 | CC(C)c1c(-c2cccc3[nH]ccc23)c(C(=O)O)n2c1-c1cc(F)cc3ccn(c13)[C@H](C)C2 [compound 272]
32 | < 20 | CC(C)c1c(-c2cc(F)cc3[nH]ccc23)[nH]c(C(=O)O)c1-c1cc(Oc2nccs2)cc2[nH]ccc12 [compound 201]
33 | < 20 | CCc1c(-c2cccc3[nH]ccc23)[nH]c(C(=O)O)c1-c1ccc(OC)cc1Br [compound 15]
34 | < 20 | CC(C)c1c(-c2ccc3cc[nH]c3c2)[nH]c(C(=O)O)c1-c1c(Cl)ccc2[nH]ccc12 [compound 182, 3-(5-chloro-1H-indol-4-yl)-5-(1H-indol-6-yl)-4-isopropyl-1H-pyrrole-2-carboxylic acid]
35 | < 20 | CC(C)c1c(-c2cccc3[nH]c(CO)cc23)[nH]c(C(=O)O)c1-c1c(Cl)ccc2[nH]ccc12 [compound 52]
36 | > 100 | O=C(O)c1ccc(-c2ccccc2O)[nH]1 [compound 130]
37 | < 20 | CC(C)CCc1c[nH]c2cccc(-c3c(C(=O)O)[nH]c(-c4cc(F)cc5[nH]ccc45)c3C(C)C)c12 [compound 188]
38 | > 100 | COc1ccccc1-c1ccc(C(=O)O)[nH]1 [compound 142]
39 | < 20 | COc1cc(-c2c(C(=O)O)[nH]c(-c3cc(F)cc4[nH]ccc34)c2CC(C)C)c2cc[nH]c2c1 [compound 174]
40 | < 20 | Cc1c[nH]c2cccc(-c3c(C(=O)O)[nH]c(-c4cccc5[nH]ccc45)c3C(C)C)c12 [compound 34]

Row | Kd [µM] | Compound
41 | < 20 | CC(C)c1c(-c2cc(F)cc3[nH]ccc23)[nH]c(S(C)(=O)=O)c1-c1cccc2[nH]ccc12 [compound 218]
42 | < 20 | CC(C)c1c(-c2cc(F)cc3[nH]ccc23)[nH]c(C(=O)O)c1-c1cccc2c1ccn2CCNS(C)(=O)=O [compound 265]
43 | < 20 | CC(C)c1c(-c2cc(F)cc3[nH]ccc23)[nH]c(C(=O)O)c1-c1cccc2[nH]c3c(c12)CCC3 [compound 212]
44 | < 20 | CC(C)c1cc(-c2c(C(=O)O)[nH]c(-c3cc(F)cc4[nH]ccc34)c2C(C)C)c2ccn(CC(=O)O)c2c1 [compound 55]
45 | > 100 | CCc1c(-c2cccc3[nH]ccc23)[nH]c(C(=O)O)c1-c1ccc(N)cc1 [compound 105]
46 | < 20 | CC(C)c1c(-c2cc(F)cc3[nH]ccc23)[nH]c(C(=O)O)c1-c1cccc2[nH]cc(CCO)c12 [compound 187]
47 | > 100 | O=C(O)c1[nH]c(-c2cccc3[nH]ccc23)c2c1CCCC2 [compound 115]
48 | > 100 | Cn1ccc2c(-c3[nH]c(C(=O)O)c4c3CCCC4)cccc21 [compound 110]
49 | < 20 | CC(C)c1c(-c2cc(F)cc3[nH]ccc23)[nH]c(CC(=O)O)c1-c1cccc2[nH]ccc12 [compound 215]
50 | > 100 | Cc1ccc(-c2ccc(C(=O)O)[nH]2)cc1 [compound 151]
51 | < 20 | CC(C)c1c(-c2cc(F)cc3[nH]ccc23)[nH]c(C(=O)O)c1-c1cccc2ncccc12 [compound 268]
52 | < 20 | CC(C)c1c(-c2cc(F)cc3[nH]ccc23)[nH]c(C(=O)O)c1-c1cccc(Oc2nccs2)c1 [compound 64]
53 | < 20 | COCCC(=O)NCCn1ccc2c(-c3c(C(=O)O)[nH]c(-c4cc(F)cc5[nH]ccc45)c3C(C)C)cc(OC)cc21 [compound 176]
54 | > 100 | Cc1cc(C(=O)O)[nH]c1-c1cccc2c1ccn2C [compound 116]
55 | < 20 | CC(C)c1c(-c2cc(F)cc3[nH]ccc23)[nH]c(CS(N)(=O)=O)c1-c1cccc2[nH]ccc12 [compound 219]
56 | < 20 | CC(C)c1c(-c2cc(F)cc3[nH]ccc23)[nH]c(C(=O)O)c1-c1ccnc2[nH]c(C3=CCNCC3)cc12 [compound 255]
57 | > 100 | O=C(O)c1ccc(-c2cccc3ncccc23)[nH]1 [compound 160]
58 | 50 to 100 | CCc1c(-c2cccc3[nH]ccc23)[nH]c(C(=O)O)c1-c1cnccc1Cl [compound 94]
59 | < 20 | COc1cc(-c2c(C(=O)O)[nH]c(-c3cc(F)cc4[nH]ccc34)c2C(C)C)c2cc(C(=O)O)[nH]c2c1 [compound 50]
